The source of these data is US9326511B2, “Methods of inhibiting microbial biofilms” (priority 2008, dated 2016).

For one series, the system named is E. coli cells. Kind of series: Binding of compounds with bacterial cells (spectrofluorimetric analysis of cell lysates). The note with it: 5 min incubation. Here is the method: […] At the end of the incubation period, the cells were sedimented by centrifugation to remove the fraction of unbound test compound and the cell pellet was resuspended in 2 ml of 2% SDS to obtain cell lysates. After overnight incubation with SDS, the amount of cell-bound test compound was estimated by spectrofluorimetric analysis of the cell lysates. The concentration of the compounds in the cell lysates was calculated by measuring the intensities at the maximum of the emission fluorescence spectrum and interpolating the data on a calibration plot. The amount of cell-bound test compound was expressed as nmoles of compound per mg of cell protein. The protein concentration was determined by the method of Lowry (Lowry et al., 1951, J. Biol. Chem. 193:265-275).
All experiments were run in triplicate and the results represent the average of 3 determinations with standard deviations.

Series [1] in a line: Chemical stability, qualitative stress tests (HPLC, LC-MS). The settings on record: solid, aqueous solution, PBS, 7 days each at 50, 70 and 90° C. The format is physicochemical. The method, then:
The following HPLC methodology was established for the analysis of the exemplary compounds of the invention.
The method involves detection by UV at a wavelength of 420 nm, which is very specific for these compounds. In order to monitor impurities not related to the porphyrin structure (and therefore not absorbing at 420 nm) UV spectra of the whole chromatograms were also recorded between 200 nm and 700 nm by DAD (diode array detector) in certain experiments. • Column: Zorbax Phenyl, 250×4.6 mm, 5 µm • Eluent A: 1.5 g sodium dodecylsulfate+1 mL formic acid in 1000 mL water • Eluent B: 1.5 g sodium dodecylsulfate+1 mL formic acid in 200 mL water+800 mL tetrahydrofurane • Gradient:
• Flow rate: 0.4 mL/min • Detection: 420 nm • Column temperature: 25° C. • Injection volume: 10 μl • Solutions: Porphyrin derivatives were dissolved in eluent A to give a final concentration of approximately 0.3 mg/ml.
Qualitative stress tests were undertaken on the exemplary compounds of the invention. Analysis was undertaken by HPLC & LC-MS. The compounds were stress tested in solid form, in an aqueous solution and a solution made up in phosphate-buffered saline buffer. The samples were initially incubated for 7 days at 50° C. and a sample removed for testing. The samples were then incubated for a further 7 days at 70° C., samples removed as before and the samples incubated further for 7 days at 90° C. HPLC analysis of freshly prepared solutions was undertaken and compared to the samples after 7, 14 and 21 days incubation. A visual comparison of the chromatograms was then undertaken and the content of the main products and by-products as area percentage values determined (see FIG. 4).

In a further series the test system is S. aureus SH1000. Kind of series: Planktonic MIC by broth microdilution (BSAC guidelines). Format: cell-based, Staphylococcus aureus. Here is the method:
(§1) Methods: MICs were determined for planktonic cultures by broth microdilution according to British Society for Antimicrobial Chemotherapy (BSAC) guidelines. Biofilm MICs (bMIC) and minimum biofilm eradication concentrations (MBECs) were determined using the Calgary biofilm device. The effect of Compound 10 on the viability of cold culture cells was determined by growing S. aureus SH1000 to early exponential phase at 37° C. and resuspending the cells in pre-chilled media, where they were maintained in the presence and absence of Compound 10 and control agents. The effect of Compound 10 on slow growing cells expressing the stringent response was also determined by growing cultures to early log phase and the stringent response induced by the addition of the isoleucyl-tRNA synthetase inhibitor mupirocin. Compound 10 and control agents were then added and samples recovered for viable cell determinations.
(In broth dilution the organism is exposed to a series of concentrations in liquid medium.)

For series [2], the system named is S. aureus SH1000 biofilms. The experiment in a line: Biofilm MIC and minimum biofilm eradication concentration, Calgary Biofilm Device. The format is cell-based, Staphylococcus aureus. The note with it: Staphylococcus aureus, SH1000BIOFILMS, read-out: bMIC. Here is the method: as §1
Biofilm MICs and minimum biofilm eradication concentrations (MBEC) were determined in the Calgary Biofilm Device (Nunc Inc, Roskilde, Denmark) as described by Miller et al., 2005. This involves the following steps. Aliquots (200 μL) of exponential phase cultures of strain SH1000 were added to each well of a 96-well microtitre tray. The lid assembly, which has 96 polystyrene pegs corresponding to each well, was then replaced and the system incubated for 24 hours at 37° C. on a rocking platform. Following this a biofilm of approximately 10^7 cfu matured on each peg. The lid was then washed twice in phosphate-buffered saline (PBS) to remove residual planktonic growth and then placed into a microtitre tray with fresh media containing doubling dilutions of the test antibiotic. The system was then incubated for 24 hours at 37° C. on a rocking platform. The MIC was defined as the lowest concentration of antibiotic completely inhibiting visible growth after this incubation. After the MIC was recorded, the lid assembly was again washed twice in PBS to remove planktonic cells and remaining antibiotic and then placed into fresh drug-free media. The system was incubated for a further 24 hours and the MBEC was defined as the lowest concentration of antibiotic completely inhibiting the re-establishment of planktonic growth.

In series [3] the test system is stringent S. aureus SH1000 cultures. The experiment in a line: Time-kill against cultures expressing the stringent response (induced with mupirocin). The settings on record: stringent response induced with mupirocin, agents at 4×MIC. The format is cell-based, Staphylococcus aureus. Here is the method:
as §1
When nutrients become limiting for growth bacteria adjust their metabolism from one that supports growth to one that provides for long survival in the absence of nutrients. In many bacteria a key facilitator of this physiological switch, known as the stringent response, is accumulation of guanosine […] and pentaphosphate (Traxler et al., 2008). The antibiotic mupirocin is a strong inducer of the stringent response in S. aureus and effectively causes starvation of charged isoleucyl tRNA by potent inhibition of isoleucy ItRNA synthetase (IRS) (Oliva et al., 2003). The activity of XF drugs against S. aureus SH1000 prevented from growing by the addition of mupirocin (Oliva et al., 2003), was therefore examined (FIG. 10). As an alternative method for arresting growth, bacteria were suspended in cold growth medium (Mascio et al., 2007) and the bactericidal activity of XF drugs was also determined under these conditions (FIG. 11).
(§2) The anti-staphylococcal activities of Compound 10, Compound 12 and a range of comparator agents against slow-growing cultures of Staphylococcus aureus were studied using standard time-kill methodology (Oliva et al. 2003, Hobbs et al. 2008). Staphylococcus aureus SH1000 cultures were grown to early exponential phase (OD600 nm of 0.2) in Mueller-Hinton broth (MHB) before being exposed to antibacterial agents at 4×MIC. An untreated culture served as the negative control. The experiments were undertaken in triplicate.
The antibiotic mupirocin is a strong inducer of the stringent response in S. aureus and causes starvation of charged isoleucyl tRNA by potent inhibition of isoleucyl tRNA synthetase (IRS) (Oliva et al. 2003, Cassels et al. 1995) Stringency was induced in SH1000 cultures by adding mupirocin (4 mg/L) to cells in the early exponential growth phase (OD600 nm of 0.2) (Oliva et al. 2003, Cassels et al. 1995). Cultures were incubated with mupirocin for 30 minutes before sampling began. Cultures were maintained at 37° C., and samples were taken at 30 minute intervals for 300 minutes, serially diluted in phosphate buffered saline (PBS) and diluted culture was spread on Mueller-Hinton agar and was incubated at 37° C. for 18-24 hours before the number of CFU were counted.

The test system of series [4] is S. aureus SH1000 cold cultures. Kind of series: Time-kill against cold cultures (4° C.). The format is cell-based, Staphylococcus aureus. The settings on record: cold culture held at 4° C. for 5 hours, agents at 4×MIC. The method, then:
as §1
The effect of XF drugs on the viability of cold culture cells was determined by growing S. aureus SH1000 to early exponential phase at 37° C., harvesting the cells by centrifugation (5,000×g, 10 min.) and resuspending them in pre-chilled media where they were maintained in the presence and absence of XF drugs and control agents for 5 hours. […] (FIG. 11).
as §2
Cold cultures were prepared by growing SH1000 cells to early exponential phase (OD600 nm of 0.2) at 37° C. Cultures were then centrifuged and the cell pellet was resuspended in MHB pre-chilled to 4° C. The killing kinetics of antimicrobial agents were studied as described in the section above, with the exception that cultures were maintained at 4° C. over the 5 hour sampling period.

Another series deals with S. aureus 8325-4. The note with it: previous studies (Oliva et al., 2003); cited from earlier work.
The test system of the next series is staphylococci. The settings on record: cited from earlier work; for MIC Values: literature value (Critchley et al. 2003).
[5] abbreviates: Staphylococcus aureus, planktonic S. aureus SH1000 (Table 5), read-out: MIC.
The mark [6] stands for this setting: planktonic S. aureus SH1000 (Table 6).
The mark [7] stands for this setting: 24 h, biofilm MIC, S. aureus SH1000, Calgary Biofilm Device, 24 hours (Table 6).
Setting [8] is: biofilm MIC, S. aureus SH1000, Calgary device (Example H).

The structures appear in SMILES notation. Converted amounts (≈) assume the structure as drawn. “Also recorded” adds a separate entry of the source. Where two headings read alike, the source gives them in different places. Marks after values point to notes of the source that are not given here.

With `CN(C)CCC[N+](C)(C)CCCOc1ccc(-c2c3nc(cc4ccc([nH]4)c(-c4ccc(OCCC[N+](C)(C)CCCN(C)C)cc4)c4nc(cc5ccc2[nH]5)C=C4)C=C3)cc1.[Cl-].[Cl-]` [Compound 8, 5,15-bis-(4-{3-[(3-Dimethylamino-propyl)-dimethyl-ammonio]-propyloxy}-phenyl)-porphyrin dichloride], the Bound compound with E. coli cells (0.01 μM compound, 0 washings) turned out to be 0.024 ± 0.01 nmoles/mg cell proteins; in the series with E. coli cells (0.01 μM compound, 3 washings), 0.009 ± 0.001 nmoles/mg cell proteins; in the series with E. coli cells (0.1 μM compound, 0 washings) it was 0.056 ± 0.02 nmoles/mg cell proteins; in the series on E. coli cells (0.1 μM compound, 3 washings), 0.030 ± 0.02 nmoles/mg cell proteins; in the series with E. coli cells (0.5 μM compound, 0 washings), 0.522 ± 0.2 nmoles/mg cell proteins; with E. coli cells (0.5 μM compound, 3 washings), 0.274 ± 0.15 nmoles/mg cell proteins. The Bound compound in the series with E. coli cells (1 μM compound, 0 washings) came to 3.670 ± 0.7 nmoles/mg cell proteins; in the series with E. coli cells (1 μM compound, 3 washings) it was 2.230 ± 0.8 nmoles/mg cell proteins. The “Chemical stability under stress” value in series [1] was “less stable than Compounds 10 and 12”.

Take `CCCCCCCCCC(=O)N[C@@H](Cc1c[nH]c2ccccc12)C(=O)N[C@H](CC(N)=O)C(=O)N[C@@H](CC(=O)O)C(=O)N[C@@H]1C(=O)NCC(=O)N[C@@H](CCCN)C(=O)N[C@@H](CC(=O)O)C(=O)N[C@H](C)C(=O)N[C@@H](CC(=O)O)C(=O)NCC(=O)N[C@H](CO)C(=O)N[C@@H]([C@H](C)CC(=O)O)C(=O)N[C@@H](CC(=O)c2ccccc2N)C(=O)O[C@@H]1C` [Daptomycin]: the MIC in the series on S. aureus SH1000 (setting [5]) is 1 µg/mL (≈ 0.617 µM); with S. aureus SH1000 (setting [6]) it was 1 µg/mL (≈ 0.617 µM); in series [2] (setting [7]), 2 µg/mL (≈ 1.23 µM); in series [2] (setting [8]), 2 µg/mL (≈ 1.23 µM). The “viability / bactericidal activity in time-kill (in words)” value (from here on “viability / bactericidal activity”) in series [3] is given as “no loss of viability”; in series [4], “no loss of viability; also recorded: retained some bactericidal activity; also recorded: retained limited bactericidal activity”.

As to `C[C@@H]1O[C@@H]1P(=O)(O)O` [Fosfomycin], the MIC in the series on S. aureus SH1000 (setting [5]) was determined as 16 µg/mL (≈ 116 µM); in the series on S. aureus SH1000 (setting [6]), 16 µg/mL (≈ 116 µM); in series [2] (setting [7]), 8 µg/mL (≈ 57.9 µM); in series [2] (setting [8]), 8 µg/mL (≈ 57.9 µM). Besides, the “viability / bactericidal activity” value in series [3] is reported as “no loss of viability; also recorded: completely attenuated”; in series [4], “no loss of viability”. The “effect of the stringent response on bactericidal activity” value (from here on “effect of the stringent response”) with S. aureus 8325-4 is recorded as “completely abolishes the bactericidal activity”.

Take `CN[C@H](CC(C)C)C(=O)N[C@H]1C(=O)N[C@@H](CC(N)=O)C(=O)N[C@H]2C(=O)N[C@H]3C(=O)N[C@H](C(=O)N[C@H](C(=O)O)c4cc(O)cc(O)c4-c4cc3ccc4O)[C@H](O)c3ccc(c(Cl)c3)Oc3cc2cc(c3O[C@@H]2O[C@H](CO)[C@@H](O)[C@H](O)[C@H]2O[C@H]2C[C@](C)(N)[C@H](O)[C@H](C)O2)Oc2ccc(cc2Cl)[C@H]1O` [Vancomycin]: the MIC with S. aureus SH1000 (Staphylococcus aureus, SH1000) is 1 µg/mL (≈ 0.69 µM); against S. aureus SH1000 (setting [6]), 1 µg/mL (≈ 0.69 µM); in series [2] (24 h), 2 µg/mL (≈ 1.38 µM); in series [2] it was 2 µg/mL (≈ 1.38 µM). In addition, the “viability / bactericidal activity” value in series [3] is given as “no loss of viability”; in series [4] it was “no loss of viability; also recorded: abolished”. In addition, the “MBC Values” with staphylococci (literature value (Biavasco et al. 1997; Fuchs et al. 2002)) is reported as 4-16^b μg/mL. Besides, the “MIC Values” in the series on staphylococci is recorded as 1^a μg/mL. In the series with S. aureus 8325-4, the “effect of the stringent response” value is reported as “completely abolishes the bactericidal activity”.

As to `CC(=O)NC[C@H]1CN(c2ccc(N3CCOCC3)c(F)c2)C(=O)O1` [Zyvox ® (Linezolid), Linezolid], in the series on staphylococci, the “MIC Values” is 4^a μg/mL.

As for `N[C@@H]1CON=C1O` [cycloserine], the “effect of the stringent response” value with S. aureus 8325-4 is given as “completely abolishes the bactericidal activity”.
